Earlier results on three compounds are cited in patent US20080138404A1, “EXTENDED RELEASE FORMULATIONS OF CARVEDILOL” (BIOVAIL LABORATORIES INTERNATIONAL S.R.L., priority 2006, published 2008).

In data set [1] the test system is plasma protein, primarily albumin. As to conditions: following oral administration in healthy subjects.
For data set [2] the following is noted: man.
Assay in data set [3]: not given
The source holds these as a separate data set.

By solubility is commonly meant the dissolved amount per volume that the medium holds. For the compound `COc1ccccc1OCCNCC(O)COc1cccc2[nH]c3ccccc3c12` (racemic) [Carvedilol], the solubility (above a pH of 9.0) is less than 1 µg/mL. In addition, for the setting “pH 7, room temperature”, the saturation solubility result is reported as “about 23 μg/ml”. Besides, the “bound to plasma protein” value in data set [1] is listed as “more than 98%”. For the same compound, the “colonic absorption relative to oral administration” value in data set [2] (25 mg carvedilol gelatin suspension) is “about 7%”. Moreover, in data set [2], the “relative absorption in the ileum in comparison with oral administration” value was 28% and the “relative absorption in the jejunum in comparison with oral administration” value is reported as 56%. Moreover, the “immediate release dose recovered as unchanged drug in urine” value in data set [3] (in vivo) is “less than 2%”. In addition, in data set [3] (oral, immediate release), the “terminal (elimination) half-life” value was 7 to 10 h.

Take `COc1ccccc1OCCNC[C@@H](O)COc1cccc2[nH]c3ccccc3c12` [R(+) Carvedilol]: the “higher plasma concentration in poor metabolisers compared to extensive metabolisers” value in data set [3] (in vivo) was 2-3 fold. For the same compound, the “plasma levels of R(+) relative to S(−)” value in data set [3] (in vivo, po) is 2-3 times.

On to `COc1ccccc1OCCNC[C@H](O)COc1cccc2[nH]c3ccccc3c12` [S(−) Carvedilol], for which the “increase of plasma levels in poor metabolisers” value in data set [3] (in vivo) was 20-25%.
